# Assay results: article PMC5218480 (PLoS ONE, 2017)
# Tested on: MV-4-11 cells
# Assay: Gene expression microarray analysis (Affymetrix PrimeView) and GSEA
# Format: cell-based, human
# Set-up: RFU PODN (11730768_x_at) / Fold change /veh PODN (11730768_x_at) / RFU LINC00158 (11744669_a_at) / Fold change /veh LINC00158 (11744669_a_at) / RFU DUSP10 (11751237_a_at) / Fold change /veh DUSP10 (11751237_a_at) / RFU ID3 (11757404_x_at) / Fold change /veh ID3 (11757404_x_at) / RFU PLEKHG5 (11737974_s_at) / Fold change /veh PLEKHG5 (11737974_s_at) / RFU LRRC4B (11730491_at) / Fold change /veh LRRC4B (11730491_at) / RFU GIMAP4 (11747438_a_at) / Fold change /veh GIMAP4 (11747438_a_at) / RFU KRT8 (11758183_x_at) / Fold change /veh KRT8 (11758183_x_at) / RFU CNN1 (11734310_a_at) / Fold change /veh CNN1 (11734310_a_at) / RFU VPS37D (11726825_at) / Fold change /veh VPS37D (11726825_at) / RFU C10orf10 (11716522_x_at) / Fold change /veh C10orf10 (11716522_x_at) / RFU KIR2DL2 /// KIR2DL4 /// KIR2DL5A /// KIR2DL5B /// KIR2DS1 /// KIR2DS2 /// KIR2DS3 /// KIR2DS4 /// KIR3DL3 /// KIR3DL3 /// KIR3DS1 (11738374_at) / Fold change /veh KIR2DL2 /// KIR2DL4 /// KIR2DL5A /// KIR2DL5B /// KIR2DS1 /// KIR2DS2 /// KIR2DS3 /// KIR2DS4 /// KIR3DL3 /// KIR3DL3 /// KIR3DS1 (11738374_at) / RFU C1QL1 (11718748_at) / Fold change /veh C1QL1 (11718748_at) / RFU TMPRSS4 (11747572_a_at) / Fold change /veh TMPRSS4 (11747572_a_at) / RFU HAMP (11756126_x_at) / Fold change /veh HAMP (11756126_x_at) / RFU RNFT2 (11725882_a_at) / Fold change /veh RNFT2 (11725882_a_at) / RFU NR4A2 (11747474_a_at) / Fold change /veh NR4A2 (11747474_a_at) / RFU ABCC12 (11746883_a_at) / Fold change /veh ABCC12 (11746883_a_at) / RFU TMEM136 (11760407_x_at) / Fold change /veh TMEM136 (11760407_x_at) / RFU CLDN22 /// WWC2 (11732394_at) / Fold change /veh CLDN22 /// WWC2 (11732394_at) / RFU HLA-DPB1 (11760878_x_at) / Fold change /veh HLA-DPB1 (11760878_x_at) / RFU SPINT1 (11716480_a_at) / Fold change /veh SPINT1 (11716480_a_at) / RFU GAP43 (11754022_s_at) / Fold change /veh GAP43 (11754022_s_at) / RFU A4GNT (11735810_at) / Fold change /veh A4GNT (11735810_at) / RFU PRB3 (11715151_x_at) / Fold change /veh PRB3 (11715151_x_at) / RFU TUBB4B (11761932_at) / Fold change /veh TUBB4B (11761932_at) / RFU CAPN14 (11732068_a_at) / Fold change /veh CAPN14 (11732068_a_at) / RFU TMCC2 (11721928_a_at) / Fold change /veh TMCC2 (11721928_a_at) / RFU IRGQ (11745062_a_at) / Fold change /veh IRGQ (11745062_a_at) / RFU FAM174B (11720279_a_at) / Fold change /veh FAM174B (11720279_a_at) / RFU TMPRSS4 (11748680_a_at) / Fold change /veh TMPRSS4 (11748680_a_at) / RFU FAM212B (11763350_a_at) / Fold change /veh FAM212B (11763350_a_at) / RFU PLEKHG5 (11743358_a_at) / Fold change /veh PLEKHG5 (11743358_a_at) / RFU ZSCAN30 (11745921_a_at) / Fold change /veh ZSCAN30 (11745921_a_at) / RFU CMKLR1 (11741424_a_at) / Fold change /veh CMKLR1 (11741424_a_at) / RFU LOC101060620 /// MAPK8IP1 (11723275_at) / Fold change /veh LOC101060620 /// MAPK8IP1 (11723275_at) / RFU SPTSSB (11747773_x_at) / Fold change /veh SPTSSB (11747773_x_at) / RFU PRSS12 (11739890_at) / Fold change /veh PRSS12 (11739890_at) / RFU BIN1 (11741810_x_at) / Fold change /veh BIN1 (11741810_x_at) / RFU WNT11 (11732464_a_at) / Fold change /veh WNT11 (11732464_a_at) / RFU C10orf10 (11716521_a_at) / Fold change /veh C10orf10 (11716521_a_at) / RFU C5orf56 (11738089_at) / Fold change /veh C5orf56 (11738089_at) / RFU CYB561 (11721691_x_at) / Fold change /veh CYB561 (11721691_x_at) / RFU ANKRD19P (11752326_a_at) / Fold change /veh ANKRD19P (11752326_a_at) / RFU OR2T12 /// OR2T33 /// OR2T8 (11738714_s_at) / Fold change /veh OR2T12 /// OR2T33 /// OR2T8 (11738714_s_at) / RFU VCAN (11748164_a_at) / Fold change /veh VCAN (11748164_a_at) / RFU JSRP1 (11732532_at) / Fold change /veh JSRP1 (11732532_at) / RFU KRTAP10-11 (11738290_x_at) / Fold change /veh KRTAP10-11 (11738290_x_at) / RFU MYO3A (11730013_a_at) / Fold change /veh MYO3A (11730013_a_at) / RFU EBF3 (11725865_a_at) / Fold change /veh EBF3 (11725865_a_at) / RFU CAMK2N1 (11719241_x_at) / Fold change /veh CAMK2N1 (11719241_x_at) / RFU C5orf56 (11738088_a_at) / Fold change /veh C5orf56 (11738088_a_at) / RFU OLFML3 (11715873_a_at) / Fold change /veh OLFML3 (11715873_a_at) / RFU LOC100653217 /// NTM (11731650_a_at) / Fold change /veh LOC100653217 /// NTM (11731650_a_at) / RFU MAPK11 (11762145_a_at) / Fold change /veh MAPK11 (11762145_a_at) / RFU FIZ1 (11724087_x_at) / Fold change /veh FIZ1 (11724087_x_at) / RFU OASL (11726364_x_at) / Fold change /veh OASL (11726364_x_at) / RFU SOX15 (11748057_x_at) / Fold change /veh SOX15 (11748057_x_at) / RFU CD79A (11719716_a_at) / Fold change /veh CD79A (11719716_a_at) / RFU HIST1H1D (11736915_at) / Fold change /veh HIST1H1D (11736915_at) / RFU CASKIN2 (11723855_a_at) / Fold change /veh CASKIN2 (11723855_a_at) / RFU LOC730098 (11760151_x_at) / Fold change /veh LOC730098 (11760151_x_at) / RFU OR4N2 (11742367_at) / Fold change /veh OR4N2 (11742367_at) / RFU PRRT2 (11749266_a_at) / Fold change /veh PRRT2 (11749266_a_at) / RFU SNX32 (11753110_a_at) / Fold change /veh SNX32 (11753110_a_at) / RFU CDHR5 (11726645_a_at) / Fold change /veh CDHR5 (11726645_a_at) / RFU RCAN1 (11760418_a_at) / Fold change /veh RCAN1 (11760418_a_at) / RFU FAM167A (11723789_a_at) / Fold change /veh FAM167A (11723789_a_at) / RFU FAM26E (11764081_at) / Fold change /veh FAM26E (11764081_at) / RFU ISYNA1 (11749810_s_at) / Fold change /veh ISYNA1 (11749810_s_at) / RFU ACY1 (11761880_at) / Fold change /veh ACY1 (11761880_at) / RFU 11764098_at / Fold change /veh 11764098_at / RFU SAMD14 (11745864_x_at) / Fold change /veh SAMD14 (11745864_x_at) / RFU NPB (11741838_a_at) / Fold change /veh NPB (11741838_a_at) / RFU TMPRSS6 (11731388_a_at) / Fold change /veh TMPRSS6 (11731388_a_at) / RFU KRTAP10-2 (11738614_at) / Fold change /veh KRTAP10-2 (11738614_at) / RFU ARHGAP8 /// PRR5-ARHGAP8 (11727945_x_at) / Fold change /veh ARHGAP8 /// PRR5-ARHGAP8 (11727945_x_at) / RFU KRTAP5-7 /// NADSYN1 (11734609_at) / Fold change /veh KRTAP5-7 /// NADSYN1 (11734609_at) / RFU RASL12 (11751679_a_at) / Fold change /veh RASL12 (11751679_a_at) / RFU CDKN2B (11736163_a_at) / Fold change /veh CDKN2B (11736163_a_at) / RFU PRF1 (11729649_at) / Fold change /veh PRF1 (11729649_at) / RFU, ZNF638 /// ZNF638-IT1 / Fold change vs veh, ZNF638 /// ZNF638-IT1 / RFU, PANK3 / Fold change vs veh, PANK3 / RFU, SH3YL1 / Fold change vs veh, SH3YL1 / RFU, ZEB2 / Fold change vs veh, ZEB2 / RFU, NRIP1 / Fold change vs veh, NRIP1 / RFU, PTTG1IP / Fold change vs veh, PTTG1IP / RFU, CAPN2 / Fold change vs veh, CAPN2 / RFU, MED14 / Fold change vs veh, MED14 / RFU, SNORA58 / Fold change vs veh, SNORA58 / RFU, C1orf63 / Fold change vs veh, C1orf63 / RFU, LRRFIP1 / Fold change vs veh, LRRFIP1 / RFU, NDUFAF7 / Fold change vs veh, NDUFAF7 / RFU, SLC12A2 / Fold change vs veh, SLC12A2 / RFU, IBTK / Fold change vs veh, IBTK / RFU, ESF1 / Fold change vs veh, ESF1 / Fold change vs veh, TMEM50B / RFU, TAOK1 / Fold change vs veh, TAOK1 / RFU, ACBD3 / Fold change vs veh, ACBD3 / RFU, TMA16 / Fold change vs veh, TMA16 / RFU, RWDD3 / Fold change vs veh, RWDD3 / RFU, BCAT1 / Fold change vs veh, BCAT1 / RFU, EDEM3 / Fold change vs veh, EDEM3 / RFU, TMEM33 / Fold change vs veh, TMEM33 / RFU, WDR75 / Fold change vs veh, WDR75 / RFU, AHCTF1 / Fold change vs veh, AHCTF1 / RFU, TFRC / Fold change vs veh, TFRC / RFU, ZDHHC17 / Fold change vs veh, ZDHHC17 / RFU, NOM1 / Fold change vs veh, NOM1 / RFU, ARL8B / Fold change vs veh, ARL8B / RFU, ZBTB11 / Fold change vs veh, ZBTB11 / RFU, TAMM41 / Fold change vs veh, TAMM41 / RFU, KIAA1704 /// LOC100996395 / Fold change vs veh, KIAA1704 /// LOC100996395 / RFU, ING1 / Fold change vs veh, ING1 / RFU, TRMT61B / Fold change vs veh, TRMT61B / RFU, FUBP3 / Fold change vs veh, FUBP3 / RFU, TP53 / Fold change vs veh, TP53 / RFU, TNKS2 / Fold change vs veh, TNKS2 / RFU, ZFP14 / Fold change vs veh, ZFP14 / RFU, ACTR2 / Fold change vs veh, ACTR2 / RFU, PPP3R1 / Fold change vs veh, PPP3R1 / RFU, PIK3R1 / Fold change vs veh, PIK3R1 / RFU, HNRNPA1 / Fold change vs veh, HNRNPA1 / RFU, RNF170 / Fold change vs veh, RNF170 / RFU, ZNF28 / Fold change vs veh, ZNF28 / RFU, RNGTT / Fold change vs veh, RNGTT / RFU, OGT / Fold change vs veh, OGT / RFU, BRD1 / Fold change vs veh, BRD1 / RFU, MARS / Fold change vs veh, MARS / RFU, ZNF655 / Fold change vs veh, ZNF655 / RFU, FAHD1 / Fold change vs veh, FAHD1 / RFU, BDP1 / Fold change vs veh, BDP1 / RFU, LRRCC1 / Fold change vs veh, LRRCC1 / RFU, ARID1A / Fold change vs veh, ARID1A / RFU, ZNF146 / Fold change vs veh, ZNF146 / RFU, ZNF330 / Fold change vs veh, ZNF330 / RFU, GPN3 / Fold change vs veh, GPN3 / RFU, C9orf123 / Fold change vs veh, C9orf123 / RFU, N4BP2L2 / Fold change vs veh, N4BP2L2 / RFU, ARFIP1 / Fold change vs veh, ARFIP1 / RFU, FAM179B / Fold change vs veh, FAM179B / RFU, BCL10 / Fold change vs veh, BCL10 / RFU, UHRF1BP1L / Fold change vs veh, UHRF1BP1L / RFU, BET1 / Fold change vs veh, BET1 / RFU, CNOT2 / Fold change vs veh, CNOT2 / RFU, ZNF268 / Fold change vs veh, ZNF268 / Fold change vs veh, ZNF507 / RFU, DGCR2 / Fold change vs veh, DGCR2 / RFU, WDSUB1 / Fold change vs veh, WDSUB1 / Fold change vs veh, HSP90B1 /// MIR3652 / RFU, ADSS / Fold change vs veh, ADSS / RFU, GK / Fold change vs veh, GK / RFU, ZNF148 / Fold change vs veh, ZNF148 / RFU, TAF9 / Fold change vs veh, TAF9 / RFU, SLC1A5 / Fold change vs veh, SLC1A5 / RFU, SLMO2 / Fold change vs veh, SLMO2 / RFU, ABCC4 / Fold change vs veh, ABCC4 / RFU, LOC101060439 /// RAP1B / Fold change vs veh, LOC101060439 /// RAP1B / RFU, RFX7 / Fold change vs veh, RFX7 / RFU, GTPBP10 / Fold change vs veh, GTPBP10 / RFU, CNEP1R1 / Fold change vs veh, CNEP1R1 / RFU, BIVM-ERCC5 /// ERCC5 / Fold change vs veh, BIVM-ERCC5 /// ERCC5 / RFU, ILF3 / Fold change vs veh, ILF3 / RFU 11762660_at / Fold change /veh 11762660_at / RFU VCAN (11757783_s_at) / Fold change /veh VCAN (11757783_s_at) / RFU DDX43 (11728927_at) / Fold change /veh DDX43 (11728927_at) / RFU KRT8 (11758188_x_at) / Fold change /veh KRT8 (11758188_x_at) / RFU NKD1 (11759106_at) / Fold change /veh NKD1 (11759106_at) / RFU SRD5A1 (11742802_a_at) / Fold change /veh SRD5A1 (11742802_a_at) / RFU TPSAB1 /// TPSB2 (11721975_s_at) / Fold change /veh TPSAB1 /// TPSB2 (11721975_s_at) / RFU GSTM3 (11746129_a_at) / Fold change /veh GSTM3 (11746129_a_at) / RFU IL23R (11737362_x_at) / Fold change /veh IL23R (11737362_x_at) / RFU TMEM51 (11727254_a_at) / Fold change /veh TMEM51 (11727254_a_at) / RFU PIWIL2 (11732686_x_at) / Fold change /veh PIWIL2 (11732686_x_at) / RFU ORM1 (11744905_x_at) / Fold change /veh ORM1 (11744905_x_at) / RFU CCDC152 (11743942_at) / Fold change /veh CCDC152 (11743942_at) / RFU ECM1 (11717891_a_at) / Fold change /veh ECM1 (11717891_a_at) / RFU IL23R (11748794_a_at) / Fold change /veh IL23R (11748794_a_at) / RFU TNFAIP8L3 (11732012_x_at) / Fold change /veh TNFAIP8L3 (11732012_x_at) / RFU MBOAT4 (11741988_at) / Fold change /veh MBOAT4 (11741988_at) / RFU 11764193_at / Fold change /veh 11764193_at / RFU TMEM53 (11763286_at) / Fold change /veh TMEM53 (11763286_at) / RFU MAGEB2 (11727129_at) / Fold change /veh MAGEB2 (11727129_at) / RFU TMEM200A (11744735_a_at) / Fold change /veh TMEM200A (11744735_a_at) / RFU CCDC152 (11751479_a_at) / Fold change /veh CCDC152 (11751479_a_at) / RFU FAM211A (11726209_a_at) / Fold change /veh FAM211A (11726209_a_at) / RFU RGS16 (11746705_a_at) / Fold change /veh RGS16 (11746705_a_at) / RFU VCAN (11755009_s_at) / Fold change /veh VCAN (11755009_s_at) / RFU RHOB (11743442_s_at) / Fold change /veh RHOB (11743442_s_at) / RFU RGS16 (11720943_a_at) / Fold change /veh RGS16 (11720943_a_at) / RFU RGS16 (11720944_at) / Fold change /veh RGS16 (11720944_at) / RFU, VPS4B / Fold change vs veh, VPS4B / RFU, CREB1 / Fold change vs veh, CREB1 / RFU, DNAJC13 / Fold change vs veh, DNAJC13 / RFU, GNAQ / Fold change vs veh, GNAQ / RFU, CDK5R1 / Fold change vs veh, CDK5R1 / RFU, ZRANB3 / Fold change vs veh, ZRANB3 / RFU, CUL4A / Fold change vs veh, CUL4A / RFU, CCNY / Fold change vs veh, CCNY / RFU, UFL1 / Fold change vs veh, UFL1 / RFU, COG3 / Fold change vs veh, COG3 / RFU, DIAPH2 / Fold change vs veh, DIAPH2 / RFU, SKA2 / Fold change vs veh, SKA2 / RFU, AFF3 / Fold change vs veh, AFF3 / RFU, LMF1 / Fold change vs veh, LMF1 / RFU, IPO11 / Fold change vs veh, IPO11 / RFU, DFFB / Fold change vs veh, DFFB / RFU, FOXP1 / Fold change vs veh, FOXP1 / RFU, CARD8 / Fold change vs veh, CARD8 / RFU, STRN3 / Fold change vs veh, STRN3 / RFU, ADK / Fold change vs veh, ADK / RFU, RASSF2 / Fold change vs veh, RASSF2 / RFU, WIPF1 / Fold change vs veh, WIPF1 / RFU, LARP1B / Fold change vs veh, LARP1B / RFU, RASA1 / Fold change vs veh, RASA1 / RFU, RB1 / Fold change vs veh, RB1 / RFU, PPFIA1 / Fold change vs veh, PPFIA1 / RFU, MAT2A / Fold change vs veh, MAT2A / RFU, CCT5 / Fold change vs veh, CCT5 / RFU, WDR92 / Fold change vs veh, WDR92 / RFU, CUX1 / Fold change vs veh, CUX1 / RFU, TTC7A / Fold change vs veh, TTC7A / RFU, TMEM135 / Fold change vs veh, TMEM135 / RFU, DEPTOR / Fold change vs veh, DEPTOR / RFU, CPM / Fold change vs veh, CPM / RFU, DNAJB6 / Fold change vs veh, DNAJB6 / RFU, CACNA2D3 / Fold change vs veh, CACNA2D3 / RFU, DTX4 / Fold change vs veh, DTX4 / RFU, TFCP2 / Fold change vs veh, TFCP2 / RFU, GMCL1 /// GMCL1P1 / Fold change vs veh, GMCL1 /// GMCL1P1 / RFU, AEBP2 / Fold change vs veh, AEBP2 / RFU, SNHG1 /// SNORD22 /// SNORD25 /// SNORD26 /// SNORD27 /// SNORD28 /// SNORD29 /// SNORD31 / Fold change vs veh, SNHG1 /// SNORD22 /// SNORD25 /// SNORD26 /// SNORD27 /// SNORD28 /// SNORD29 /// SNORD31 / Fold change (Aza/veh), C12orf56 (ProbeSet 11735607_a_at) / Fold change (ACY-1035/veh), C12orf56 (ProbeSet 11735607_a_at) / Fold change (Aza/veh), FGFR1OP (ProbeSet 11751329_s_at) / Fold change (ACY-1035/veh), FGFR1OP (ProbeSet 11751329_s_at) / Fold change (Aza/veh), VPS36 (ProbeSet 11739960_a_at) / Fold change (ACY-1035/veh), VPS36 (ProbeSet 11739960_a_at) / RFU SYPL1 (11715823_x_at) / Fold change /veh SYPL1 (11715823_x_at) / RFU IGFBP7 (11715501_s_at) / Fold change /veh IGFBP7 (11715501_s_at) / RFU REEP3 (11722064_at) / Fold change /veh REEP3 (11722064_at) / RFU IGLL1 (11728026_x_at) / Fold change /veh IGLL1 (11728026_x_at): dose or concentration left out as unconfirmed
# Conditions: ProbeSet 11719632_a_at; LIST B
smiles,measurement,value
Nc1ncn([C@@H]2O[C@H](CO)[C@@H](O)[C@H]2O)c(=O)n1 [azacitidine],"Fold change vs veh, ABCC4",0.85
